Results taken from US8993752B2, “Neprilysin inhibitors” (Theravance Biopharma R&D IP, LLC, priority 2011, dated 2015).

Target: T1, human NEP (Homo sapiens, UniProt P08473)
T1 construct: purchased R&D Systems, Minneapolis, Minn; 1182-ZN
Test: In vitro enzyme inhibition assay at human NEP (fluorogenic peptide substrate)
Type: biochemical
Conditions: recombinant human NEP; substrate Mca-D-Arg-Arg-Leu-Dap-(Dnp)-OH 10 μM; 37° C.; values given as ranges; read-out: pKi values at human NEP (converted)
Method: The inhibitory activities of compounds at human and rat neprilysin (EC 3.4.24.11; NEP) and human angiotensin converting enzyme (ACE) were determined using in vitro assays as described below.
Recombinant human NEP and recombinant human ACE were obtained commercially (R&D Systems, Minneapolis, Minn., catalog numbers 1182-ZN and 929-ZN, respectively). The fluorogenic peptide substrate Mca-D-Arg-Arg-Leu-Dap-(Dnp)-OH (Medeiros et al. (1997) Braz. J. Med. Biol. Res. 30:1157-62; Anaspec, San Jose, Calif.) and Abz-Phe-Arg-Lys(Dnp)-Pro-OH (Araujo et al. (2000) Biochemistry 39:8519-8525; Bachem, Torrance, Calif.) were used in the NEP and ACE assays respectively.
The assays were performed in 384-well white opaque plates at 37° C. using the fluorogenic peptide substrates at a concentration of 10 μM in Assay Buffer (NEP: 50 mM HEPES, pH 7.5, 100 mM NaCl, 0.01% polyethylene glycol sorbitan monolaurate (Tween-20), 10 μM ZnSO4; ACE: 50 mM HEPES, pH 7.5, 100 mM NaCl, 0.01% Tween-20, 1 μM ZnSO4).
Test compounds were assayed over the range of concentrations from 10 μM to 20 pM. Test compounds were added to the enzymes and incubated for 30 minute at 37° C. prior to initiating the reaction by the addition of substrate. Reactions were terminated after 20 minutes of incubation at 37° C. by the addition of glacial acetic acid to a final concentration of 3.6% (v/v).
Plates were read on a fluorometer with excitation and emission wavelengths set to 320 nm and 405 nm, respectively Inhibition constants were obtained by nonlinear regression of the data using the equation (GraphPad Software, Inc., San Diego, Calif.): v=v0/[1+(I/K′)] where v is the reaction rate, v0 is the uninhibited reaction rate, I is the inhibitor concentration and K′ is the apparent inhibition constant.
Compounds of the invention were tested in this assay and found to have pKi values at human NEP as follows.

T1 sequence (P08473 whole entry): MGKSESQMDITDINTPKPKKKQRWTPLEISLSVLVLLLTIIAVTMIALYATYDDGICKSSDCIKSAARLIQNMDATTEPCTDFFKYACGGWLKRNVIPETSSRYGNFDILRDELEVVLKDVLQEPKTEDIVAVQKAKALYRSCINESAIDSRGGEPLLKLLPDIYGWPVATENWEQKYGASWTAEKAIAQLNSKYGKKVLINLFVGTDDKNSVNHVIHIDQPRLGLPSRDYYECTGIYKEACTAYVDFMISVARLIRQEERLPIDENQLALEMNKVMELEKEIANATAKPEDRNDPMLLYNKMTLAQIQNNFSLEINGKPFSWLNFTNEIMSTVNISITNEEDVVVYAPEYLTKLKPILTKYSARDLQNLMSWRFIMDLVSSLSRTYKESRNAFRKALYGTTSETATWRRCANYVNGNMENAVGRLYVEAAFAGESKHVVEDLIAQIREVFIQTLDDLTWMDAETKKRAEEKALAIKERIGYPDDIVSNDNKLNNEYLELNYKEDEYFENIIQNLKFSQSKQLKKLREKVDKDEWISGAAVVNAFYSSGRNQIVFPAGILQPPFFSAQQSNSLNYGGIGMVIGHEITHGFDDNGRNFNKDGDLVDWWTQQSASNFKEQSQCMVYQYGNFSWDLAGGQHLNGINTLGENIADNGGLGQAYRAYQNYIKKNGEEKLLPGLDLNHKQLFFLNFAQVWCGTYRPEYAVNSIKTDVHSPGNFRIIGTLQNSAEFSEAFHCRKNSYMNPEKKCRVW

SMILES | Ki [µM]
Cc1cc(Cn2nc(C(=O)N[C@H](Cc3ccccc3Cl)[C@@H](O)C(=O)O)cc2C(=O)O)no1 [Example 2-61, 5-[(1R,2R)-2-Carboxy-1-(2-chloro-benzyl)-2-hydroxy-ethylcarbamoyl]-2-(5-methyl-isoxazol-3-ylmethyl)-2H-pyrazole-3-carboxylic acid] | 0.00126 to 0.01
CC(=O)c1cc(C(=O)N[C@H](Cc2ccccc2Cl)[C@@H](O)C(=O)O)[nH]n1 [Example 3-5, (2R,3R)-3-[(5-Acetyl-2H-pyrazole-3-carbonyl)-amino]-4-(2-chloro-phenyl)-2-hydroxy-butyric acid] | 0.0126 to 0.1
COc1ccc(Cn2nc(C(=O)N[C@H](Cc3ccccc3Cl)[C@@H](O)C(=O)O)cc2C(=O)O)c(F)c1F [Example 2-27, 5-[(1R,2R)-2-Carboxy-1-(2-chloro-benzyl)-2-hydroxy-ethylcarbamoyl]-2-(2,3-difluoro-4-methoxy-benzyl)-2H-pyrazole-3-carboxylic acid] | ≤ 0.001
O=C(N[C@H](Cc1ccccc1Cl)[C@@H](O)C(=O)O)c1cc(C(=O)O)n(Cc2ccc(Cl)cc2C(F)(F)F)n1 [Example 2-12, 5-[(1R,2R)-2-Carboxy-1-(2-chloro-benzyl)-2-hydroxy-ethylcarbamoyl]-2-(4-chloro-2-trifluoromethyl-benzyl)-2H-pyrazole-3-carboxylic acid] | 0.0126 to 0.1
O=C(N[C@H](Cc1ccccc1Cl)[C@@H](O)C(=O)O)c1cc(C(=O)O)n(Cc2c(F)cc(Cl)cc2F)n1 [Example 2-2, 5-[(1R,2R)-2-Carboxy-1-(2-chloro-benzyl)-2-hydroxy-ethylcarbamoyl]-2-(4-chloro-2,6-difluoro-benzyl)-2H-pyrazole-3-carboxylic acid] | 0.00126 to 0.01
CCOc1ncc(Cn2nc(C(=O)N[C@H](Cc3ccccc3Cl)[C@@H](O)C(=O)O)cc2C(=O)O)cn1 [Example 2-62, 5-[(1R,2R)-2-Carboxy-1-(2-chloro-benzyl)-2-hydroxy-ethylcarbamoyl]-2-(2-ethoxy-pyrimidin-5-ylmethyl)-2H-pyrazole-3-carboxylic acid] | ≤ 0.001
O=C(N[C@H](Cc1ccccc1Cl)[C@@H](O)C(=O)O)c1cc(-c2cc(Cl)ccc2Cl)n[nH]1 [Example 3-7, (2R,3R)-4-(2-Chloro-phenyl)-3-{[5-(2,5-dichloro-phenyl)-2H-pyrazole-3-carbonyl]-amino}-2-hydroxy-butyric acid] | 0.00126 to 0.01
CC(C)CN(C)C(=O)c1cc(C(=O)N[C@H](Cc2ccccc2Cl)[C@@H](O)C(=O)O)n[nH]1 [Example 2-56, (2R,3R)-4-(2-Chloro-phenyl)-2-hydroxy-3-{[5-(isobutyl-methyl-carbamoyl)-1H-pyrazole-3-carbonyl]-amino}-butyric acid] | 0.0126 to 0.1
O=C(N[C@H](Cc1ccccc1Cl)[C@@H](O)C(=O)O)c1cc(C(=O)O)n(Cc2ccc(Cl)cc2)n1 [Example 2-1, 5-[(1R,2R)-2-Carboxy-1-(2-chloro-benzyl)-2-hydroxy-ethylcarbamoyl]-2-(4-chloro-benzyl)-2H-pyrazole-3-carboxylic acid] | 0.00126 to 0.01
O=C(N[C@H](Cc1ccccc1Cl)[C@@H](O)C(=O)O)c1cc(-c2ccc3ccccc3c2)[nH]n1 [Example 2-53, (2R,3R)-4-(2-Chloro-phenyl)-2-hydroxy-3-[(5-naphthalen-2-yl-1H-pyrazole-3-carbonyl)-amino]-butyric acid] | 0.0126 to 0.1
O=C(N[C@H](Cc1ccccc1Cl)[C@@H](O)C(=O)O)c1cc(-c2ccc(Cl)cc2Cl)n[nH]1 [Example 3-8, (2R,3R)-4-(2-Chloro-phenyl)-3-{[5-(2,4-dichloro-phenyl)-2H-pyrazole-3-carbonyl]-amino}-2-hydroxy-butyric acid] | 0.00126 to 0.01
Cc1cccc(C)c1Cn1nc(C(=O)N[C@H](Cc2ccccc2Cl)[C@@H](O)C(=O)O)cc1C(=O)O [Example 2-43, 5-[(1R,2R)-2-Carboxy-1-(2-chloro-benzyl)-2-hydroxy-ethylcarbamoyl]-2-(2,6-dimethyl-benzyl)-2H-pyrazole-3-carboxylic acid] | 0.00126 to 0.01
O=C(N[C@H](Cc1ccccc1Cl)[C@@H](O)C(=O)O)c1cc(C(=O)O)[nH]n1 [Example 2-45, 5-[(1R,2R)-2-Carboxy-1-(2-chloro-benzyl)-2-hydroxy-ethylcarbamoyl]-2H-pyrazole-3-carboxylic acid] | 0.00126 to 0.01
COc1ccc(Cn2ccc(C(=O)N[C@H](Cc3ccccc3Cl)[C@@H](O)C(=O)O)n2)c(F)c1F [Example 2-65, (2R,3R)-4-(2-Chloro-phenyl)-3-{[1-(2,3-difluoro-4-methoxy-benzyl)-1H-pyrazole-3-carbonyl]-amino}-2-hydroxy-butyric acid] | 0.00126 to 0.01
CCCCc1cc(C(=O)N[C@H](Cc2ccccc2Cl)[C@@H](O)C(=O)O)[nH]n1 [Example 3-1, (2R,3R)-3-[(5-Butyl-2H-pyrazole-3-carbonyl)-amino]-4-(2-chloro-phenyl)-2-hydroxy-butyric acid] | 0.0126 to 0.1
COc1c(F)cc(Cn2nc(C(=O)N[C@H](Cc3ccccc3Cl)[C@@H](O)C(=O)O)cc2C(=O)O)cc1F [Example 2-34, 5-[(1R,2R)-2-Carboxy-1-(2-chloro-benzyl)-2-hydroxy-ethylcarbamoyl]-2-(3,5-difluoro-4-methoxy-benzyl)-2H-pyrazole-3-carboxylic acid] | ≤ 0.001
CN(C)C(=O)c1cc(C(=O)N[C@H](Cc2ccccc2Cl)[C@@H](O)C(=O)O)nn1Cc1ccc(F)cc1 [Example 2-72, (2R,3R)-4-(2-Chloro-phenyl)-3-{[5-dimethylcarbamoyl-1-(4-fluoro-benzyl)-1H-pyrazole-3-carbonyl]-amino}-2-hydroxy-butyric acid] | 0.0126 to 0.1

Continued, values first:

Ki [µM] | SMILES
0.0126 to 0.1 | O=C(O)C[C@@H](Cc1ccccc1Cl)NC(=O)c1cc(C(=O)O)n(Cc2ccccc2)n1 [Example 11-4, 2-Benzyl-5-[(R)-2-carboxy-1-(2-chloro-benzyl)-ethylcarbamoyl]-2H-pyrazole-3-carboxylic acid]
0.0126 to 0.1 | COCCn1nc(C(=O)N[C@H](Cc2ccccc2)[C@@H](O)C(=O)O)cc1C(=O)O [Example 8-13, 5-((1R,2R)-1-Benzyl-2-carboxy-2-hydroxy-ethylcarbamoyl)-2-(2-methoxy-ethyl)-2H-pyrazole-3-carboxylic acid]
0.0126 to 0.1 | CC(Cn1nc(C(=O)N[C@@H](CC(=O)O)Cc2ccccc2Cl)cc1C(=O)O)C(=O)O (stereo partly drawn) [Example 11-10, 5-[(R)-2-Carboxy-1-(2-chloro-benzyl)-ethylcarbamoyl]-2-(2-carboxy-propyl)-2H-pyrazole-3-carboxylic acid]
0.0126 to 0.1 | O=C(N[C@H](Cc1ccccc1)[C@@H](O)C(=O)O)c1cc(C(=O)N2CCOCC2)n(Cc2ccc(Cl)cc2)n1 [Example 8-18, (2R,3R)-3-{[1-(4-Chloro-benzyl)-5-(morpholine-4-carbonyl)-1H-pyrazole-3-carbonyl]-amino}-2-hydroxy-4-phenyl-butyric acid]
0.00126 to 0.01 | COc1ccc(Cn2nc(C(=O)N[C@H](Cc3ccccc3C(F)(F)F)[C@@H](O)C(=O)O)cc2C(=O)O)cc1 [Example 5, 5-[(1R,2R)-2-Carboxy-2-hydroxy-1-(2-trifluoromethylbenzyl)-ethylcarbamoyl]-2-(4-methoxybenzyl)-2H-pyrazole-3-carboxylic Acid]
0.0126 to 0.1 | CCCCCCn1nc(C(=O)N[C@@H](CC(=O)O)Cc2ccccc2Cl)cc1C(=O)O [Example 11-8, 5-[(R)-2-Carboxy-1-(2-chloro-benzyl)-ethylcarbamoyl]-2-hexyl-2H-pyrazole-3-carboxylic acid]
0.00126 to 0.01 | O=C(N[C@H](Cc1ccccc1)[C@@H](O)C(=O)O)c1cc(C(=O)O)n(Cc2cccc(F)c2)n1 [Example 8-4, 5-((1R,2R)-1-Benzyl-2-carboxy-2-hydroxy-ethylcarbamoyl)-2-(3-fluoro-benzyl)-2H-pyrazole-3-carboxylic acid]
0.00126 to 0.01 | O=C(N[C@H](Cc1ccccc1C(F)(F)F)[C@@H](O)C(=O)O)c1cc(C(=O)O)n(Cc2ccc(F)cc2)n1 [Example 6-1, 5-[(1R,2R)-2-Carboxy-2-hydroxy-1-(2-trifluoromethyl-benzyl)-ethylcarbamoyl]-2-(4-fluoro-benzyl)-2H-pyrazole-3-carboxylic acid]
0.0126 to 0.1 | O=C(N[C@H](Cc1ccccc1C(F)(F)F)[C@@H](O)C(=O)O)c1cc(C(=O)N2CCC(O)CC2)[nH]n1 [Example 6-8, (2R,3R)-2-Hydroxy-3-{[5-(4-hydroxy-piperidine-1-carbonyl)-1H-pyrazole-3-carbonyl]-amino}-4-(2-trifluoromethyl-phenyl)-butyric acid]
0.0126 to 0.1 | O=C(O)C[C@@H](Cc1ccccc1Cl)NC(=O)c1cc(C(=O)O)n(Cc2ccncc2)n1 [Example 11-11, 5-[(R)-2-Carboxy-1-(2-chloro-benzyl)-ethylcarbamoyl]-2-pyridin-4-ylmethyl-2H-pyrazole-3-carboxylic acid]
